Results from patent US8461186B2, “Use of N-piperidine derivatives for the treatment of neurodegenerative pathologies” (Medestea Research & Production S.p.A., priority 2004, dated 2013).
Read-outs that look alike come from different tables or passages of the source.

Columns and labels:
[1] = tested on: rats receiving Paraquat into Substantia Nigra; format: in vivo, rat; conditions: for deaths of rats: 120 mg/kg intraperitoneally 5 minutes prior to, simultaneously with, or 5 minutes after 50 μg Paraquat; for signs of alterations during continuous monitoring / survival for a further 24 hours: Paraquat (50 μg) microinfused simultaneously with 1 μg compound; for capacity to cross the blood-brain barrier (BBB): concluded from protection after intraperitoneal administration; for protection against the behavioural and neuropathological effects induced by Paraquat: intracerebral and peripheral administration
Excerpt: The Paraquat/rat/PS experimental model was therefore selected as the most indicative for checking the efficacy of chemical compounds according to the present invention; of these, two anti-oxidants designated MP1002 and MP1001 were used in the tests:
Male Sprague Dawley rats (210-220 g weight) were kept on a standard laboratory diet supplemented with “Nossan Pellets” (both the animals and the pellets are available from Nossan Company, Milan, Italy) and were housed for three weeks (relative humidity 50%±10%, temperature 22° C.±1 and in a light/darkness cycle of 12 hours/12 hours, with first light at 7.30 a.m.) prior to the tests; food and water were available ad libitum.
Prior to treatment, the rats were anaesthetized by intraperitoneal injection of 380 mg/kg weight of chloral hydrate; a stainless steel guide cannula (size 25) was implanted unilaterally in the Substantia Nigra with stereotaxic guiding and was secured to the cranium with dental acrylic material.
The animals (20 per test group) were allowed a recovery period of seven days prior to treatment; during this period no change in motor activity or posture was observed. Microinfusions were performed by means of a 10 μl Hamilton syringe connected to an injection cannula by means of a Teflon tube. The compounds or the vehicle (0.8% NaCl) were injected at a total volume of 1 μl/minute.
Microinfusion of 50 μg of Paraquat into the Substantia Nigra (n=20 rats) led to an increase in motor activity with the animals performing jumps and moving in circles in a contralateral direction relative to the injection position, about 24 minutes later; all of the animals were dead 24±2.5 hours after infusion. A further twenty animals were infused with Paraquat and twenty with Paraquat plus vehicle; about ten of the animals for each group survived 20 hours after treatment and were used to determine the development of lipid peroxidation in the Substantia Nigra.

[2] = tested on: myocardial ischaemia and reperfusion (I/R) in the rat; experiment: Myocardial lesion due to ischaemia and reperfusion (LAD occlusion): size of the infarct; format: in vivo; conditions: 10 mg/kg bolus 5 minutes prior to reperfusion, then 2 mg/kg/h; LAD occlusion 25 minutes, reperfusion 2 hours; p<0.01 (FIG. 1)
Protocol: The in vivo model of myocardial lesion due to ischaemia and reperfusion was selected as the most suitable for checking the efficacy of the compounds MP1002 and MP1001 according to the invention.
Male Sprague Dawley rats (220-230 g) were kept on a standard laboratory diet supplemented with “Nossan Pellets” (Nossan Company, Milan, Italy) and were housed for three weeks prior to the tests (relative humidity 50%±10, temperature 22° C.±1 and light/darkness cycle of 12/12 hours with first light at 7.30 a.m.); food and water were available ad libitum.
The rats (twenty per group) were anaesthetized by intraperitoneal injection of chloral hydrate (380 mg/kg) and were then tracheotomized, intubated and ventilated with ambient air by a suitable ventilator; body temperature was kept at 38° C.±1 and the right carotid artery was cannulated and connected to a pressure transducer to monitor the mean arterial blood pressure (MAP). […]
The coronary artery was occluded by tightening the occluder, a procedure which is correlated with the electrocardiographic and haemodynamic changes (drop in MAP) which are typical of myocardial ischaemia. […] The heart rate (HR) and MAP were monitored continuously. […]

[3] = tested on: mean arterial blood pressure (MAP) and heart rate (HR) in the rat; experiment: Mean arterial blood pressure (MAP) and heart rate (HR) in myocardial ischaemia and reperfusion; format: in vivo; conditions: for HR: in beats/min (unit assumed); for MAP: in mmHg (unit assumed); for mean MAP and HR values versus the I/R group treated with the vehicle alone: rats subjected to I/R; for haemodynamic effects of infusion: sham operations (no LAD occlusion)
Protocol: The rats (twenty per group) were anaesthetized by intraperitoneal injection of chloral hydrate (380 mg/kg) and were then tracheotomized, intubated and ventilated with ambient air by a suitable ventilator; body temperature was kept at 38° C.±1 and the right carotid artery was cannulated and connected to a pressure transducer to monitor the mean arterial blood pressure (MAP).
The coronary artery was occluded by tightening the occluder, a procedure which is correlated with the electrocardiographic and haemodynamic changes (drop in MAP) which are typical of myocardial ischaemia. After 25 minutes of myocardial ischaemia, the occluder was reopened, permitting reperfusion for 2 hours. The heart rate (HR) and MAP were monitored continuously.
The following test groups were considered: a) LAD occlusion (25 minutes) and reperfusion (2 hours) plus administration of the vehicle (saline solution, 3 ml/kg-v-bolus plus 1.8 ml/kg/h) starting 5 minutes after reperfusion and maintained during the reperfusion period; b) LAD occlusion and reperfusion plus administration of MP1002 or MP1001 (10 mg/kg injection in bolus) 5 minutes prior to reperfusion, followed by infusion of 2 mg/kg/h during the reperfusion period; c) sham operation (no LAD occlusion) and infusion of the vehicle; d) sham operation and infusion of MP1002 or MP1001 as described above.
The base haemodynamic results were similar in the various groups considered.

[4] = tested on: lipid peroxidation in the Substantia Nigra; format: in vivo; conditions: for Lipid Peroxidation: Substantia Nigra, 24 hours; for lipid peroxidation in the Substantia Nigra: treatment before, with, or after infusion with Paraquat, p<0.01
Protocol: Microinfusion of 50 μg of Paraquat into the Substantia Nigra (n=20 rats) led to an increase in motor activity with the animals performing jumps and moving in circles in a contralateral direction relative to the injection position, about 24 minutes later; all of the animals were dead 24±2.5 hours after infusion. […]
[…]. Enzymol. 52, 302-310, 1978.

[5] = 50 μg paraquat by microinfusion, 5 minutes later 100 mg/kg b.w. intraperitoneal
[6] = pretreated intraperitoneally 120 mg/kg b.w., after 5 minutes paraquat (50 μg) by microinfusion
[7] = simultaneous microinfusion into Substantia Nigra of paraquat (50 μg) with 1 μg compound
[8] = simultaneously 50 μg paraquat by microinfusion and 120 mg/kg b.w. intraperitoneal
[9] = Sham operation, Occlusion 15 min
[10] = Sham operation, Occlusion 25 min
[11] = Sham operation, Reperfusion 15 min
[12] = Sham operation, Reperfusion 25 min
[13] = pretreated intraperitoneally 120 mg/kg b.w., after 5 minutes paraquat (50 μg)
[14] = simultaneous microinfusion of paraquat (50 μg) with 1 μg compound

CC1(C)CC(OC(=O)CCCCCCCCC(=O)OC2CC(C)(C)N(O)C(C)(C)C2)CC(C)(C)N1O [MP1001, BIS(1-HYDROXYL-2,2,6,6-TETRAMETHYL-4-PIPERIDINYL)DECANDIOATE]
Duration (seizures) [1, 5]: No seizures and epileptic discharges
Latency (seizures) [1, 5]: No seizures and epileptic discharges
Mortality [1, 5]: 0%
deaths of rats [1]: none of the rats died
signs of alterations during continuous monitoring [1]: no signs of alterations were observed
survival for a further 24 hours [1]: all of the animals survived
capacity to cross the blood-brain barrier (BBB) [1]: cross the blood-brain barrier
protection against the behavioural and neuropathological effects induced by Paraquat [1]: protected completely
Duration (seizures) [1, 6]: No seizures and epileptic discharges
Latency (seizures) [1, 6]: No seizures and epileptic discharges
Mortality [1, 6]: 0%
Duration (seizures) [1, 7]: No seizures and epileptic discharges
Latency (seizures) [1, 7]: No seizures and epileptic discharges
Mortality [1, 7]: 0%
Duration (seizures) [1, 8]: No seizures and epileptic discharges
Latency (seizures) [1, 8]: No seizures and epileptic discharges
Mortality [1, 8]: 0%
reduction in the size of the infarct compared with the control [2]: 78%
HR ([3]; I/R, Baseline): 435 ± 25
MAP ([3]; I/R, Baseline): 125 ± 9
HR ([3]; I/R, Occlusion 15 min): 438 ± 31
MAP ([3]; I/R, Occlusion 15 min): 118 ± 12
HR ([3]; I/R, Occlusion 25 min): 430 ± 28
MAP ([3]; I/R, Occlusion 25 min): 111 ± 13
HR ([3]; I/R, Reperfusion 15 min): 425 ± 28
MAP ([3]; I/R, Reperfusion 15 min): 100 ± 10
HR ([3]; I/R, Reperfusion 25 min): 427 ± 26
MAP ([3]; I/R, Reperfusion 25 min): 95 ± 8
HR ([3]; Sham operation, Baseline): 422 ± 33
MAP ([3]; Sham operation, Baseline): 127 ± 16
HR [3, 9]: 422 ± 26
MAP [3, 9]: 125 ± 13
HR [3, 10]: 424 ± 48
MAP [3, 10]: 121 ± 11
HR [3, 11]: 427 ± 27
MAP [3, 11]: 112 ± 8
HR [3, 12]: 427 ± 23
MAP [3, 12]: 107 ± 16
mean MAP and HR values versus the I/R group treated with the vehicle alone [3]: not significantly different
haemodynamic effects of infusion [3]: no substantial haemodynamic effects
Lipid Peroxidation [4, 5]: 4.8 ± 0.57 nmol MDA × h^−1 × mg prot^−1
Lipid Peroxidation [4, 13]: 4.7 ± 0.49 nmol MDA × h^−1 × mg prot^−1
Lipid Peroxidation [4, 14]: 5.4 ± 0.84 nmol MDA × h^−1 × mg prot^−1
Lipid Peroxidation [4, 8]: 5.1 ± 0.94 nmol MDA × h^−1 × mg prot^−1
lipid peroxidation in the Substantia Nigra [4]: markedly and significantly (p<0.01) reduced lipid peroxidation

CC1(C)CC(OC(=O)CCCCCCCCC(=O)OC2CC(C)(C)N(O)C(C)(C)C2)CC(C)(C)N1O [MP1002, bis(1-oxyl-2,2,6,6-tetramethyl-4-piperidinyl)decandioate]
Duration (seizures) [1, 5]: No seizures and epileptic discharges
Latency (seizures) [1, 5]: No seizures and epileptic discharges
Mortality [1, 5]: 0%
deaths of rats [1]: none of the rats died
signs of alterations during continuous monitoring [1]: no signs of alterations were observed
survival for a further 24 hours [1]: all of the animals survived
capacity to cross the blood-brain barrier (BBB) [1]: cross the blood-brain barrier
protection against the behavioural and neuropathological effects induced by Paraquat [1]: protected completely
Duration (seizures) [1, 6]: No seizures and epileptic discharges
Latency (seizures) [1, 6]: No seizures and epileptic discharges
Mortality [1, 6]: 0%
Duration (seizures) [1, 7]: No seizures and epileptic discharges
Latency (seizures) [1, 7]: No seizures and epileptic discharges
Mortality [1, 7]: 0%
Duration (seizures) [1, 8]: No seizures and epileptic discharges
Latency (seizures) [1, 8]: No seizures and epileptic discharges
Mortality [1, 8]: 0%
reduction in the size of the infarct compared with the control [2]: 80%
HR ([3]; I/R, Baseline): 438 ± 30
MAP ([3]; I/R, Baseline): 127 ± 14
HR ([3]; I/R, Occlusion 15 min): 437 ± 32
MAP ([3]; I/R, Occlusion 15 min): 121 ± 14
HR ([3]; I/R, Occlusion 25 min): 431 ± 24
MAP ([3]; I/R, Occlusion 25 min): 114 ± 10
HR ([3]; I/R, Reperfusion 15 min): 427 ± 29
MAP ([3]; I/R, Reperfusion 15 min): 102 ± 11
HR ([3]; I/R, Reperfusion 25 min): 429 ± 25
MAP ([3]; I/R, Reperfusion 25 min): 97 ± 9
HR ([3]; Sham operation, Baseline): 421 ± 26
MAP ([3]; Sham operation, Baseline): 125 ± 15
HR [3, 9]: 420 ± 33
MAP [3, 9]: 123 ± 16
HR [3, 10]: 422 ± 25
MAP [3, 10]: 120 ± 11
HR [3, 11]: 428 ± 26
MAP [3, 11]: 110 ± 12
HR [3, 12]: 426 ± 32
MAP [3, 12]: 105 ± 9
mean MAP and HR values versus the I/R group treated with the vehicle alone [3]: not significantly different
haemodynamic effects of infusion [3]: no substantial haemodynamic effects
Lipid Peroxidation [4, 5]: 4.1 ± 0.39 nmol MDA × h^−1 × mg prot^−1
Lipid Peroxidation [4, 13]: 5.2 ± 0.75 nmol MDA × h^−1 × mg prot^−1
Lipid Peroxidation [4, 14]: 4.3 ± 0.63 nmol MDA × h^−1 × mg prot^−1
Lipid Peroxidation [4, 8]: 4.9 ± 0.86 nmol MDA × h^−1 × mg prot^−1
lipid peroxidation in the Substantia Nigra [4]: markedly and significantly (p<0.01) reduced lipid peroxidation
